Legend:
hCA I = molecular target: T1, hCA I (Homo sapiens, UniProt P00915); assay: hCA I inhibition, esterase assay with 4-nitrophenylacetate as substrate; format: biochemical; details: 4-nitrophenylacetate substrate, mean from at least three determinations, enzyme purified from human erythrocytes
T1 construct: we have purified CA I and II (hCA I and hCA II) from human erythrocytes; from tissue; host or cells: human erythrocytes (fresh human blood)
Description: (§1) Erythrocytes were purified from fresh human blood obtained from the Blood Centre of the Research Hospital at Atatürk University. The blood samples were centrifuged at 1500 rpm for 15 min and the plasma and buffy coat were removed. The red cells were isolated and washed twice with 0.9% NaCl, and hemolysed with 1.5 volumes of ice-cold water. The ghost and intact cells were removed by centrifugation at 20 000 rpm for 30 min at 4 °C. The pH of the hemolysate was adjusted to 8.7 with solid Tris[18]. Firstly, benzoyl chloride and stirred for four hours at room temperature in CH2Cl2 cellulose. After the spacer arm cellulose added as a benzyl group and finally diazotized sulfanilamide clamped to the para position of benzyl group as ligand. The hemolysate was applied to the prepared cellulose-benzyl-sulfanylamide affinity column equilibrated with 25 mM Tris-HCl/0.1 M Na2SO4 (pH 8.7). The affinity gel was washed with 25 mM Tris-HCl/22 mM Na2SO4 (pH 8.7). The human carbonic anhydrase (hCA I and hCA II) isozymes were eluted with 1 M NaCl/25 mM Na2HPO4 (pH 6.3) and 0.1 M CH3COONa/0.5 M NaClO4 (pH 5.6), respectively. All procedures were performed at 4 °C[16].
(§2) Enzyme activity was determined spectrophotometrically by following the change in absorbance at 348 nm of 4-nitrophenylacetate to 4-nitrophenylate over a period of 3 min at 25 °C[19–21]. The enzymatic reaction contained 1.4 mL 0.05 M Tris-SO4 buffer (pH 7.4), 1 mL 3 mM 4-nitrophenylacetate, 0.5 mL H2O and 0.1 mL enzyme solution, in a total volume of 3.0 mL[22]. Inhibitory effects of compounds 4–12 were compared with phenolic compounds 13–15. Different inhibitor concentrations were used and all compounds were tested in triplicate at each concentration used. Control cuvette activity was acknowledged as 100% in the absence of inhibitor. An Activity% – [Inhibitor] graph was drawn for each inhibitor[22–24]. The curve-fitting algorithm allowed to obtain the IC50 values, working at the lowest concentration of substrate of 0.15 mM, from which KI values were calculated[25]^,[26]. The catalytic activity of these enzymes was calculated from Lineweaver–Burk plots, as reported earlier, and represent the mean from at least three different determinations. The CA I and II isoenzymes used here were purified from human blood as described earlier.

hCA II = molecular target: T2, hCA II (Homo sapiens, UniProt P00918); assay: hCA II inhibition, esterase assay with 4-nitrophenylacetate as substrate; format: biochemical; details: 4-nitrophenylacetate substrate, mean from at least three determinations, enzyme purified from human erythrocytes
T2 construct: we have purified CA I and II (hCA I and hCA II) from human erythrocytes; from tissue; host or cells: human erythrocytes (fresh human blood)
Description: as §1, §2

T1 sequence (P00915 whole entry): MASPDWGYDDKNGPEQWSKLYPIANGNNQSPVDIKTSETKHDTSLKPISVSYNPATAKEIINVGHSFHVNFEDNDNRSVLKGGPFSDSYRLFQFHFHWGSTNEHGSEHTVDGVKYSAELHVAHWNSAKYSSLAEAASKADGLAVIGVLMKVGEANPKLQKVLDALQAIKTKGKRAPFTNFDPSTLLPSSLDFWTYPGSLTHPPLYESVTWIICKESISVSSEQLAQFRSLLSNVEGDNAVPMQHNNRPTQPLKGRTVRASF

Ki (hCA I) [nM]	Ki (hCA II) [nM]	SMILES
104	236	Cn1c(N)c(N)c(=O)n(C)c1=O [5,6-Diamino 1,3-Dimethyluracil (12), 5,6-Diamino 1,3-Dimethyluracil]
85	172	Cn1c(N)cc(=O)n(C)c1=O [6-Amino 1,3-Dimethyluracil (11), 6-Amino 1,3-Dimethyluracil]
459	1430	O=C(O)c1c[nH]c(=O)[nH]c1=O [Isoorotic acid (10), isoorotic acid]
732	1680	O=C(O)c1cc(=O)[nH]c(=O)[nH]1 [Orotic acid (9), Orotic acid]

From paper PMC6009904, “Carbonic anhydrase inhibitory properties of some uracil derivatives” (Journal of Enzyme Inhibition and Medicinal Chemistry, 2017)
